Experimental data as given in ChEMBL document CHEMBL4819013, “The giardicidal activity of lobendazole, fabomotizole, tenatoprazole and ipriflavone: A ligand-based virtual screening and in vitro study” (Eur J Med Chem, 2021).

Experiments:
Giardia intestinalis [1] = experiment: Giardicidal activity against Giardia intestinalis WB ATCC 30957 incubated for 48 hrs by hemocytometric counting method; assay type: functional, organism-based; conditions: Giardia duodenalis, WB ATCC 30957, 48 h
Giardia intestinalis [2] = experiment: Giardicidal activity against albendazole-resistant Giardia intestinalis incubated for 48 hrs by hemocytometric counting method; assay type: functional, organism-based; conditions: Giardia duodenalis
Giardia intestinalis [3] = experiment: Giardicidal activity against nitazoxanide-resistant Giardia intestinalis incubated for 48 hrs by hemocytometric counting method; assay type: functional, organism-based; conditions: Giardia duodenalis
Giardia intestinalis [4] = experiment: Giardicidal activity against metronidazole-resistant Giardia intestinalis incubated for 48 hrs by hemocytometric counting method; assay type: functional, organism-based; conditions: Giardia duodenalis
Giardia intestinalis [5] = experiment: Giardicidal activity against Giardia intestinalis IMSS isolate incubated for 48 hrs by hemocytometric counting method; assay type: functional, organism-based; conditions: Giardia duodenalis
Giardia intestinalis [6] = experiment: Potency index, ratio of albendazole IC50 to test compound IC50 for Giardicidal activity against nitazoxanide resistant Giardia intestinalis incubated for 48 hrs by hemocytometric counting method; assay type: functional, Giardia duodenalis
Giardia intestinalis [7] = experiment: Potency index, ratio of nitazoxanide IC50 to test compound IC50 for Giardicidal activity against nitazoxanide-resistant Giardia intestinalis incubated for 48 hrs by hemocytometric counting method; assay type: functional, Giardia duodenalis
Giardia intestinalis [8] = experiment: Potency index, ratio of metronidazole IC50 to test compound IC50 for Giardicidal activity against metronidazole-resistant Giardia intestinalis incubated for 48 hrs by hemocytometric counting method; assay type: functional, Giardia duodenalis
Giardia intestinalis [9] = experiment: Potency index, ratio of albendazole IC50 to test compound IC50 for Giardicidal activity against albendazole-resistant Giardia intestinalis incubated for 48 hrs by hemocytometric counting method; assay type: functional, Giardia duodenalis

Compound | IC50 (Giardia intestinalis [1]) | IC50 (Giardia intestinalis [2]) | IC50 (Giardia intestinalis [3]) | IC50 (Giardia intestinalis [4]) | IC50 (Giardia intestinalis [5]) | Ratio IC50 (Giardia intestinalis [6]) | Ratio IC50 (Giardia intestinalis [7]) | Ratio IC50 (Giardia intestinalis [8]) | Ratio IC50 (Giardia intestinalis [9])
CCCSc1ccc2[nH]c(NC(=O)OC)nc2c1 [ALBENDAZOLE] | 47 nM | 137 nM | 277 nM |  |  |  |  |  | 
CCOc1ccc2nc(SCCN3CCOCC3)[nH]c2c1 [FABOMOTIZOLE] | 31 nM | 50 nM | 65 nM | 50 nM | 29 nM |  |  |  | 
CC(C)Oc1ccc2c(=O)c(-c3ccccc3)coc2c1 [IPRIFLAVONE] | 34 nM | 45 nM | 14 nM | 510 nM | 25 nM |  |  |  | 
CCOC(=O)Nc1nc2ccccc2[nH]1 [LOBENDAZOLE] | 85 nM | 916 nM | 61 nM | 200 nM | 37 nM | 4.5 | 32 |  | 
Cc1ncc([N+](=O)[O-])n1CCO [METRONIDAZOLE] |  | 1630 nM |  | 1850 nM |  |  |  |  | 
CC(=O)Oc1ccccc1C(=O)Nc1ncc([N+](=O)[O-])s1 [NITAZOXANIDE] | 18 nM | 21 nM | 1970 nM | 17 nM | 15 nM |  |  |  | 
COc1ccc2[nH]c([S+]([O-])Cc3ncc(C)c(OC)c3C)nc2n1 (stereo not given) [TENATOPRAZOLE] | 19 nM | 27 nM | 49 nM | 59 nM | 20 nM |  | 40 | 31 | 5
